From ChEMBL document CHEMBL5244216, “Pyrrole: An insight into recent pharmacological advances with structure activity relationship” (Eur J Med Chem, 2018)

Test system: Mycobacterium tuberculosis
Test: Antitubercular activity against Multidrug-resistant Mycobacterium tuberculosis H37Rv assessed as reduction in microbial growth by broth dilution method
Type: functional

Question: How did the MIC turn out when `CCOc1cc(C2OC(c3ccc(-n4cccc4)cc3)=NN2C(C)=O)ccc1O` (stereo not given) was run?
Answer: The MIC was 0.2 µg/mL.

Question: Which MIC does the source give for `Cc1ccc(C)n1-c1ccc(C(=O)n2[nH]c(=O)c3ccccc3c2=O)cc1` here?
Answer: Its MIC is 0.4 µg/mL.

Question: Which MIC does the source give for `CC[C@@H](CO)NCCN[C@@H](CC)CO` [ETHAMBUTOL] here?
Answer: The MIC was 12.5 µg/mL.

Question: With `NNC(=O)c1ccncc1` [ISONIAZID] as the compound, how does the MIC read?
Answer: The MIC was 12.5 µg/mL.

Question: Which MIC does the source give for `CO[C@H]1/C=C/O[C@@]2(C)Oc3c(C)c(O)c4c(O)c(c(/C=N/N5CCN(C)CC5)c(O)c4c3C2=O)NC(=O)/C(C)=C\C=C\[C@H](C)[C@H](O)[C@@H](C)[C@@H](O)[C@@H](C)[C@H](OC(C)=O)[C@@H]1C` [RIFAMPIN] here?
Answer: The MIC was 25 µg/mL.
